Here are results for 3 molecules from patent US20240264161A1, “BIOMARKERS AND USES THEREOF” (MetaCurUm Biotech AB, priority 2021, published 2024).

One data set concerns PC-3U cells. Put plainly: Confocal imaging of abscission (GFP-VPS4A and β-tubulin). It is filed as cell-based, human. On the procedure:
(A, B and D) Immunofluorescence experiments showing co-localization of AURKB (green) and TβRI (V22, red) during mitosis in human prostate cancer (PC-3U) (A) and human neuroblastoma (KELLY) (B) cells, and of TβRI (V22, green) and β-tubulin (red) throughout the PC-3U mitosis (D). Scale bar, 20 μm. (C) Localization of survivin (green) and TβRI (V22, red) in PC-3U cells throughout the mitosis (E) Decreased co-localization of TβRI and AURKB after treatment of PC-3U cells on ice for 30 min. Scale bar, 20 μm. (F) Representative confocal images showing the localization of green fluorescent protein (GFP)-VPS4A (green) and β-tubulin (red) with or without knockdown of TβRI by siRNA, or treatment with the TβRI kinase inhibitor SB505124. Scale bar, 5 μm. (G) Multinucleated cells were counted after knockdown of TGFBR1. Data presented as mean±SEM, N=3 [Student's t-test, *P<0.05]. Scale bar, 20 μm. […] The gene sets are ordered by normalized enrichment score. Color indicates the adjusted p-value. (I) GSEA plots of the hallmark mitotic spindle (left) and G2/M checkpoint (right) gene sets show their strong association with TGFBR1-correlated genes. […] (J) PC-3U cells were treated or not with SB505124 and TGFβ for 30 minutes, after which cell lysates were analyzed by immunoblotting. […]

Another data set concerns TβRI. Put plainly: Immunoblotting of AURKB phosphorylation after TβRI kinase inhibition. It is filed as cell-based, human. To be noted: PC-3U cells treated or not with SB505124 and TGFβ for 30 minutes. How it is done: (A, B and D) Immunofluorescence experiments showing co-localization of AURKB (green) and TβRI (V22, red) during mitosis in human prostate cancer (PC-3U) (A) and human neuroblastoma (KELLY) (B) cells, and of TβRI (V22, green) and β-tubulin (red) throughout the PC-3U mitosis (D). Scale bar, 20 μm. (C) Localization of survivin (green) and TβRI (V22, red) in PC-3U cells throughout the mitosis (E) Decreased co-localization of TβRI and AURKB after treatment of PC-3U cells on ice for 30 min. Scale bar, 20 μm. (F) Representative confocal images showing the localization of green fluorescent protein (GFP)-VPS4A (green) and β-tubulin (red) with or without knockdown of TβRI by siRNA, or treatment with the TβRI kinase inhibitor SB505124. Scale bar, 5 μm. (G) Multinucleated cells were counted after knockdown of TGFBR1. Data presented as mean±SEM, N=3 [Student's t-test, *P<0.05]. Scale bar, 20 μm. […] (J) PC-3U cells were treated or not with SB505124 and TGFβ for 30 minutes, after which cell lysates were analyzed by immunoblotting. […]
Cells were washed twice with ice-cold phosphate-buffered saline (PBS) and lysed in ice-cold lysis buffer [150 mM NaCl, 50 mM Tris, pH 8.0, 0.5% (v/v) deoxycholate, 1% (v/v) NP40, 10% (v/v) glycerol and protease inhibitors]. After centrifugation, the supernatants were collected, and protein concentrations determined using the BCA Protein Assay Kit (ThermoFisher Scientific). […]
For orientation: In western blotting, separated proteins are transferred to a membrane and probed.

Data set [1] addresses T1, Flag-tagged wild-type AURKB.
T1 chain: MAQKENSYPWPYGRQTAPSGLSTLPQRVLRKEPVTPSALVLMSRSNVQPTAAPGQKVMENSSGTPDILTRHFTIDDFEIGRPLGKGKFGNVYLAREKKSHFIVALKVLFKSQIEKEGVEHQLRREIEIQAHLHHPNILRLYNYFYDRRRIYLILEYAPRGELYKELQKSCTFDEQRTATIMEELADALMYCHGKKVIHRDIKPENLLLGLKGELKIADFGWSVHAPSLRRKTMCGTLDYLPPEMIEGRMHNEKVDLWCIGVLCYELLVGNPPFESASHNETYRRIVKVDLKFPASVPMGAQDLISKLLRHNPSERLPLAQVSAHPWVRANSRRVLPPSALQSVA

Data set [2] has as its target T2, glutathione-S-transferase (GST)-TβRI, P36897.
T2 chain: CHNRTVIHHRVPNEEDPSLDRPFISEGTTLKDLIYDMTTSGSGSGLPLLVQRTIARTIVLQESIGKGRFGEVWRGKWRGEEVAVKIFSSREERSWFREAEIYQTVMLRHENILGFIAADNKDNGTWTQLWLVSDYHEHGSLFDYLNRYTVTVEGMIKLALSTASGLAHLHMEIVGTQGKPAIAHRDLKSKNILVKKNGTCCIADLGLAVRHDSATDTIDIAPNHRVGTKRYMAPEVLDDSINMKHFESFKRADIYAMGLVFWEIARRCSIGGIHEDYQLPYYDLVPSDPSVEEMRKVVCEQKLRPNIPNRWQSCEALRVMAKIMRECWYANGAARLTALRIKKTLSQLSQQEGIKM

`Cc1cccc(-c2[nH]c(C(C)(C)C)nc2-c2ccc3c(c2)OCO3)n1` [SB505124]: the effect on abscission result in the data set with PC-3U cells is on record as “did not affect the abscission”. The AURKB phosphorylation result in the data set with TβRI is “suppressed AURKB phosphorylation”.

B1: TNF receptor associated factor 6 (TRAF6), endogenous in PC-3U cells (protein)
chain: MSLLNCENSCGSSQSESDCCVAMASSCSAVTKDDSVGGTASTGNLSSSFMEEIQGYDVEFDPPLESKYECPICLMALREAVQTPCGHRFCKACIIKSIRDAGHKCPVDNEILLENQLFPDNFAKREILSLMVKCPNEGCLHKMELRHLEDHQAHCEFALMDCPQCQRPFQKFHINIHILKDCPRRQVSCDNCAASMAFEDKEIHDQNCPLANVICEYCNTILIREQMPNHYDLDCPTAPIPCTFSTFGCHEKMQRNHLARHLQENTQSHMRMLAQAVHSLSVIPDSGYISEVRNFQETIHQLEGRLVRQDHQIRELTAKMETQSMYVSELKRTIRTLEDKVAEIEAQQCNGIYIWKIGNFGMHLKCQEEEKPVVIHSPGFYTGKPGYKLCMRLHLQLPTAQRCANYISLFVHTMQGEYDSHLPWPFQGTIRLTILDQSEAPVRQNHEEIMDAKPELLAFQRPTIPRNPKGFGYVTFMHLEALRQRTFIKDDTLLVRCEVSTRFDMGSLRREGFQPRSTDAGV
As for B1, the “polyubiquitination of AURKB (Flag IP, HA-ubiquitin immunoblot, with or without TRAF6 siRNA)” value in data set [1] was “Knockdown of TRAF6 by siRNA in PC-3U cells suppressed polyubiquitination of AURKB”.

B2: His-AURKB (protein)
chain: T1 chain
As for B2, the “in vitro kinase assay (phosphorylation of GST-TβRI)” value in data set [2] is recorded as “His-AURKB phosphorylated glutathione-S-transferase (GST)-TβRI in an in vitro kinase assay”.
